{"source": "patent US20120165383A1", "about": "“INFLAMMATORY EYE DISEASE” (MASSACHUSETTS EYE & EAR INFIRMARY, priority 2004, published 2012)", "key": {"[1]": {"tested_on": "TNF-α", "assay": "Retinal TNF-α levels, ELISA, EIU rats", "format": "in vivo, rat", "conditions": "for LPS-induced increase of TNF-alpha levels in the retina: 1 mg/kg GA i.p. 24 h before LPS, FIG. 6", "procedure": "(§1) Materials and Methods: Female Lewis rats received a single intraperitoneal injection of 1 mg/kg GA or vehicle (DMSO). EIU was induced 24 hours later by a footpad injection of 200 mg/kg lipopolysaccharide (LPS).\n(§2) Retinal levels of VEGF, TNF-α, and leukocyte total levels of the LPS receptor CD14 were quantified with an ELISA method, whereas membranous CD14 levels were assessed with membrane precipitation and subsequent immunoblotting. For the ELISA, one day after the administration of the LPS rats were euthanized and retinal lysates were prepared on ice in RIPA lysis buffer (1% NP-40, 0.5% deoxycholate (DOC), 1% SDS, 150 mmol/L NaCl, 50 mmol/L Tris-HCl [pH 8.0]) containing sodium fluorid, […], phenylmethylsulfonylfluorid (PMSF), leupeptin and aprotinin. Protein concentration was determined by Bradford assay (Protein Assay, Bio-Rad, Hercules, Calif.). Samples containing the same amount of protein were assayed for their VEGF, TNF-α and CD14 levels with a commercially available kit (R&D systems, CA) as per the instructions of the manufacturer."}, "[2]": {"conditions": "Phase I trials in various neoplasias; cited from earlier work"}, "[3]": {"tested_on": "VEGF", "assay": "Retinal VEGF levels, ELISA, EIU rats", "format": "in vivo, rat", "conditions": "for LPS-induced increase of VEGF levels in the retina: 1 mg/kg GA i.p. 24 h before LPS, FIG. 5", "procedure": "as §1, §2"}, "[4]": {"conditions": "attributed to instability; cited from earlier work"}, "[5]": {"tested_on": "blood-retinal barrier", "assay": "Blood-retinal barrier breakdown by Evans Blue extravasation, EIU rats", "format": "in vivo, rat", "conditions": "1 mg/kg GA i.p. 24 h before LPS", "procedure": "as §1\n(§3) Leukocyte activation was quantified with a myeloperoxidase (MPO) activity assay and blood-retinal barrier breakdown was assessed by Evans Blue extravasation. Animals were anesthetized and Evans blue dye (Sigma) dissolved in normal saline (30 mg/ml) was injected through the tail vein at a dosage of 45 mg/kg body weight. After the dye had circulated for 120 minutes, the chest cavity was opened and blood samples were obtained from the left ventricle to assess the Evans blue plasma concentration. These blood samples were centrifuged at 16,000 g for 5 minutes. […] The absorbance of Evans blue was measured by spectrophotometry as described below. […] The background-subtracted absorbance was determined by measuring each sample at 620 nm (absorbance maximum for Evans blue in formamide) and 740 nm (absorbance minimum). The concentrations of dye in the extracts and the blood samples were calculated using a standard curve of Evans blue in formamide. Blood-ocular barrier breakdown was calculated using the following equation, with results being expressed in microliters of plasma per gram of retina dry weight times hours of dye circulating time. […]"}, "[6]": {"tested_on": "myeloperoxidase (MPO) activity", "assay": "Leukocyte activation, myeloperoxidase (MPO) activity assay, EIU rats", "format": "in vivo, rat", "conditions": "1 mg/kg GA i.p. 24 h before LPS, leukocytes from rats with EIU, FIG. 7", "procedure": "as §1, §3"}, "[7]": {"tested_on": "leukocyte adhesion", "assay": "Leukocyte adhesion ex vivo, concanavalin A lectin staining of retinal flatmounts, EIU rats", "format": "in vivo, rat", "conditions": "1 mg/kg GA i.p. 24 h before LPS, evaluated 24 h after LPS, FIGS. 9-11", "procedure": "as §1\n(§4) Twenty-four hours after the administration of LPS, leukocyte adhesion was evaluated in vitro with quantitative endothelial cell-neutrophil adhesion assays and ex vivo with concanavalin A lectin staining of retinal flatmounts, as follows. After the induction of deep anesthesia in the rat, the chest cavity was opened, and a 14-gauge perfusion cannula was introduced to the left ventricle. The right atrium was opened with a 12-gauge needle to achieve outflow. With the heart providing the motive force, 250 mL/kg PBS was administered from the perfusion cannula to remove erythrocytes and non-adherent leukocytes. […] Lectin staining was followed by 1% bovine serum albumin (BSA)/PBS perfusion for 1 minute, and PBS perfusion alone for 4 minutes, to remove excess concanavalin A. The retinas were flatmounted in a water-based fluorescence anti-fading medium (Fluoromount; Southern Biotechnology, Birmingham, Ala.) and imaged by fluorescence microscopy (Axioplan, FITC filter, 40×; Carl Zeiss, Oberkochen, Germany). […] Leukocyte location was scored as being either arteriolar, venular, or capillary. The total number of adherent leukocytes per retina was counted. […]"}, "[8]": {"tested_on": "NF-κB", "assay": "Retinal NF-κB activity, modified ELISA (Trans-AM), EIU rats", "format": "in vivo, rat", "conditions": "1 mg/kg GA i.p. 24 h before LPS, FIG. 4", "procedure": "as §1\n(§5) Retinal activities of NF-κB and HIF-1α were quantified with a modified ELISA method as described in Poulaki et al., Am. J. Pathol. 165(2):457-69 (2004) and Poulaki et al., J. Clin. Invest. 109(6):805-15 (2002). NF-κB activation was analyzed using the Trans-AM NF-κB […] transcription factor assay kit (Active Motif, Carlsbad, Calif.) according to the manufacturer's instructions, as previously described (Mitsiades et al., Proc. Natl. Acad. Sci. USA, 99:14374-14379 (2002); Mitsiades et al., Blood, 99:4525-4530 (2002)). […] Transcription factor binding to the target oligonucleotide was detected by incubation with respective specific primary monoclonal antibodies, visualized by anti-IgG horseradish peroxidase conjugate and developing solution, and quantified at 450 nm with a reference wavelength of 655 nm. Background binding was calculated by adding in selected wells the respective consensus oligonucleotides in excess (20 pmol/well) as soluble competitors that prevented transcription factor binding to the probe immobilized on the plate. […]"}, "[9]": {"tested_on": "leukocyte adhesion", "assay": "Quantitative endothelial cell-neutrophil adhesion assay in vitro, endotoxin-induced uveitis (EIU) rats", "format": "cell-based, rat", "conditions": "1 mg/kg GA i.p. 24 h before LPS; evaluated 24 h after LPS; vs DMSO vehicle", "procedure": "as §1, §4"}, "[10]": {"tested_on": "CD14", "assay": "Leukocyte total levels of the LPS receptor CD14, EIU rats", "format": "in vivo, rat", "conditions": "1 mg/kg GA i.p. 24 h before LPS, FIG. 1", "procedure": "as §1, §2"}, "[11]": {"tested_on": "HIF-1α", "assay": "Retinal HIF-1α activity, modified ELISA binding assay, EIU rats", "format": "in vivo, rat", "conditions": "1 mg/kg GA i.p. 24 h before LPS, FIG. 3", "procedure": "as §1, §5"}, "[12]": {"tested_on": "membrane CD14", "assay": "Membranous CD14 levels in leukocytes, membrane precipitation and immunoblotting, EIU rats", "format": "in vivo, rat", "conditions": "1 mg/kg GA i.p. 24 h before LPS, FIG. 2", "description": "Retinal levels of VEGF, TNF-α, and leukocyte total levels of the LPS receptor CD14 were quantified with an ELISA method, whereas membranous CD14 levels were assessed with membrane precipitation and subsequent immunoblotting. […] Protein concentration was determined by Bradford assay (Protein Assay, Bio-Rad, Hercules, Calif.). […]\nNeutrophils were isolated from whole blood by density gradient centrifugation with Histopaque® 1083 cell separation media (Sigma, St Louis, Mo.) according to the manufacturer's instructions. […] The preparations contained>85% monocytes as determined by eosin and methylene blue staining (Leukostat Staining System, Fisher Scientific, Pittsburgh, Pa.). […] The samples were cleared by centrifugation (14,000 rpm, 30 min, 40° C.) and assessed for protein concentration. Biotinylated proteins, representing the cell surface proteins, were immunoprecipitated with Streptavidin-agarose for 2 hours at 40° C., electrophoresed in an SDS-PAGE and CD14 levels were detected by Western Blotting as described."}, "[13]": {"tested_on": "intercellular adhesion molecule 1 (ICAM-1)", "assay": "Retinal ICAM-1 levels, EIU rats", "format": "in vivo, rat", "conditions": "rats with EIU; FIG. 8", "procedure": "as §1"}, "[14]": {"conditions": "stated for 17AAG in the description, no conditions given"}}, "data": [{"compound": "C=CCNC1=C2C[C@@H](C)C[C@H](OC)[C@H](O)[C@@H](C)/C=C(\\C)[C@H](OC(N)=O)[C@@H](OC)/C=C\\C=C(/C)C(=O)NC(=CC1=O)C2=O", "note": "[17AAG, 17-Allylamino-17-demethoxygeldanamycin]", "values": [{"measurement": "expression of TNF-α", "setting": "[1]; [14]", "result": "reduces"}, {"measurement": "pharmacokinetic profile", "setting": "[2]", "result": "favorable pharmacokinetic profile"}, {"measurement": "side effects", "setting": "[2]", "result": "transient and manageable side effects"}, {"measurement": "expression of VEGF", "setting": "[3]; [14]", "result": "reduces"}]}, {"compound": "C[C@@H]1C[C@H]2O[C@@H]2/C=C\\C=C\\C(=O)Cc2c(Cl)c(O)cc(O)c2C(=O)O1", "note": "[radicicol, Radicicol]", "values": [{"measurement": "activity in animals", "setting": "[4]", "result": "little or no activity"}]}, {"compound": "COC1=C2C[C@@H](C)C[C@H](OC)[C@H](O)[C@@H](C)/C=C(\\C)[C@H](OC(N)=O)[C@@H](OC)/C=C\\C=C(/C)C(=O)NC(=CC1=O)C2=O", "note": "[Geldanamycin]", "values": [{"measurement": "vascular leakage (blood-retinal barrier breakdown)", "setting": "[5]; FIG. 12", "result": "significantly suppressed"}, {"measurement": "vascular leakage (blood-retinal barrier breakdown)", "setting": "[5]; FIG. 12, listed as geldanamycin", "result": "decreases"}, {"measurement": "MPO activity", "setting": "[6]", "result": "significantly suppressed"}, {"measurement": "MPO activity", "setting": "[6]; listed as geldanamycin", "result": "reduces"}, {"measurement": "LPS-induced increase in leukocyte adhesion ex vivo", "setting": "[7]", "result": "significantly suppressed"}, {"measurement": "LPS-induced increase of NF-κB activity in the retina", "setting": "[8]", "result": "significantly suppressed"}, {"measurement": "LPS-induced increase of NF-κB activity in the retina", "setting": "[8]; listed as geldanamycin", "result": "decreases"}, {"measurement": "LPS-induced increase in leukocyte adhesion in vitro", "setting": "[9]", "result": "significantly suppressed"}, {"measurement": "LPS-induced increase in total CD14 levels in the leukocytes", "setting": "[10]", "result": "does not affect"}, {"measurement": "LPS-induced increase in total CD14 levels in the leukocytes", "setting": "[10]; listed as GA", "result": "did not reduce"}, {"measurement": "LPS-induced increase of HIF-1α activity in the retina", "setting": "[11]", "result": "significantly suppressed"}, {"measurement": "LPS-induced increase of HIF-1α activity in the retina", "setting": "[11]; listed as geldanamycin", "result": "decreases"}, {"measurement": "LPS-induced increase of TNF-alpha levels in the retina", "setting": "[1]", "result": "significantly suppressed"}, {"measurement": "LPS-induced increase of TNF-alpha levels in the retina", "setting": "[1]; listed as geldanamycin", "result": "decreases"}, {"measurement": "membrane CD14 levels in leukocytes", "setting": "[12]", "result": "decreases"}, {"measurement": "membrane CD14 levels in leukocytes", "setting": "[12]; listed as GA", "result": "significantly decreased"}, {"measurement": "LPS-induced increase of VEGF levels in the retina", "setting": "[3]", "result": "significantly suppressed"}, {"measurement": "LPS-induced increase of VEGF levels in the retina", "setting": "[3]; listed as geldanamycin", "result": "decreases"}, {"measurement": "LPS-induced upregulation of retinal ICAM-1 levels", "setting": "[13]", "result": "decreases"}]}]}
